The assay deals with T1, memapsin 2 (Homo sapiens, UniProt P56817).
T1 construct: pET-11 vector-derived residues 1-15 of promemapsin 2-T1 (N, cleaved yes); made in house; host or cells: E. coli
The experiment in a line: Inhibition of memapsin 2 proteolytic activity, fluorogenic substrate FS-2. The format is biochemical. The note with it: for Ki / Ki app: memapsin 2; for Vi/Vo: ratio of initial cleavage velocities of FS-2 with/without compound, enzyme and inhibitor concentrations equal (e.g., about 80 nM, 100 nM). As for the experimental part:
Ki is the inhibition equilibrium constant which indicates the ability of compounds to inhibit the β-secretase activity of memapsin 2 and memapsin 1. […] The K1 value is independent of the substrate, and converted from Ki apparent.
The Vi/Vo values depicted in Table 1 were determined at conditions under which the enzyme and inhibitor concentrations were equal (e.g., about 80 nM, 100 nM).
The relationship of Ki (independent of substrate concentration) to Kiapp is a function of substrate concentration in the assay and the Km for cleavage of the substrate by either memapsin 1 or memapsin 2 by the relationship:
The spontaneously activated memapsin 2 was employed in assays to assess the inhibition of memapsin 2 relative to memapsin 1 by compounds of the invention and in some crystallization studies.
An aliquot of the inhibitor of known concentration in DMSO was diluted into 1.8 ml 0.1 M NaOAc, pH 4.0. DMSO and added to a final concentration of 10% (v/v), and memapsin 2 (final concentration of 80 nM), followed by a 20 minute equilibration at 37° C. Compounds were evaluated for the ability to inhibit memapsin 1 and memapsin 2 at concentrations between about 10 nM and about 10 μm of inhibitor.

Setting [1] is: independent of substrate, converted from Ki apparent, read-out: Ki.
Setting [2] is: apparent Ki in presence of substrate FS-2, read-out: Ki app.
[3] abbreviates: apparent Ki in presence of substrate FS-2.
The mark [4] stands for this setting: independent of substrate, converted from Ki apparent.

Structures are written as SMILES. Read-outs that look alike come from different tables or passages of the source.

T1 sequence (P56817 41-454 limits assumed): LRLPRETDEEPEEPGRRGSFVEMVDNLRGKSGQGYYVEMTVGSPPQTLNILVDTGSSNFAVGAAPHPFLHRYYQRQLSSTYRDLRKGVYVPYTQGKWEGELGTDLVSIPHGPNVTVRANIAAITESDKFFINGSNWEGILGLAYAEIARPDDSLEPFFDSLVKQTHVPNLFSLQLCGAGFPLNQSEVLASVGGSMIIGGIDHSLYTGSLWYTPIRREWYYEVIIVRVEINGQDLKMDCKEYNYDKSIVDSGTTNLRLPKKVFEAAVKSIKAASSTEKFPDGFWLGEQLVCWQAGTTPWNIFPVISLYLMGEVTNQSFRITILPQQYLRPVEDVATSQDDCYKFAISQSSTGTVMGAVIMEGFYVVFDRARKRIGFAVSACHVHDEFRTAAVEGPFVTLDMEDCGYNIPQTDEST

For the compound `CSCC[C@H](NC(=O)[C@@H](NC(=O)OC(C)(C)C)C(C)C)C(=O)N[C@@H](CC(C)C)[C@@H](O)C[C@@H](C)C(=O)N[C@H]1c2ccccc2C[C@H]1O` [MMI-046], the Ki under setting [1] amounted to 93.7 µM. Consider `CC(C)C[C@H](NC(=O)[C@H](CCS(C)(=O)=O)NC(=O)[C@@H](NC(=O)OC(C)(C)C)C(C)C)[C@@H](O)C[C@@H](C)C(=O)N[C@H]1c2ccccc2C[C@H]1O` [MMI-047], for which the Ki under setting [1] was 69.1 µM.

Regarding `CSCC[C@H](NS(=O)(=O)c1ccc(CO)cc1)C(=O)N[C@@H](Cc1ccccc1)[C@@H](O)C[C@@H](C)C(=O)N[C@H](C(=O)NCc1ccccc1)C(C)C` [MMI-048], the Ki under setting [2] was found to be 54.8 µM and the Ki under setting [1] worked out at 34.2 µM. Consider `CC(C)C[C@H](NC(=O)[C@H](CCO)NC(=O)c1cnc2ccccc2c1)[C@@H](O)C[C@@H](C)C(=O)N[C@H](C(=O)N[C@H]1c2ccccc2C[C@H]1O)C(C)C` [MMI-049], for which, under setting [1], the Ki is 124 µM. The same measure, in the same setting: the figure for `CCC(C)[C@H](NC(=O)[C@H](C)C[C@H](O)[C@H](CC(C)C)NC(=O)[C@H](CCO)NC(=O)c1cnc2ccccc2c1)C(=O)N[C@H]1c2ccccc2C[C@H]1O` (stereo partly drawn) [MMI-050] is 91.2 µM. `CSCC[C@H](NC(=O)[C@@H](NC(=O)OC(C)(C)C)C(C)C)C(=O)N[C@@H](CC(C)C)[C@@H](O)C[C@@H](C)C(=O)N[C@H]1CCCC[C@@H]1O` [MMI-051]: under setting [3], the Ki app result is “N.I”. Moreover, the Ki entry under setting [4] is “N.I”. With `CSCC[C@H](NC(=O)[C@@H](NC(=O)OC(C)(C)C)C(C)C)C(=O)N[C@@H](CC(C)C)[C@@H](O)C[C@@H](C)C(=O)N[C@@H]1c2ccccc2C[C@@H]1O` [MMI-053], the Ki app result under setting [3] is “N.I”. For the same compound, under setting [4], the Ki result was “N.I”.

`CC(C)C[C@H](NC(=O)[C@H](CCS(C)(=O)=O)NC(=O)[C@@H](NC(=O)OC(C)(C)C)C(C)C)[C@@H](O)C[C@@H](C)C(=O)N[C@@H]1c2ccccc2C[C@@H]1O` [MMI-054]: the Ki under setting [1] was determined as 293 µM.

As for `CSCC[C@H](NC(=O)[C@@H](NC(=O)OC(C)(C)C)C(C)C)C(=O)N[C@@H](CC(C)C)[C@@H](O)C[C@@H](C)C(=O)N[C@H]1CCCC[C@@H]1O` [MMI-055], the Ki under setting [1] was determined as 394 µM. As to `CSCC[C@H](NC(=O)[C@@H](NC(=O)OC(C)(C)C)C(C)C)C(=O)N[C@@H](CC(C)C)[C@@H](O)C[C@@H](C)C(=O)N[C@@H]1CCCC[C@@H]1O` [MMI-057], the Ki runs as follows: under setting [2], 73.3 µM; under setting [1], 45.8 µM. Taken in the same sequence, the figures for `CSCC[C@H](NC(=O)[C@@H](NC(=O)OC(C)(C)C)C(C)C)C(=O)N[C@@H](CC(C)C)[C@@H](O)C[C@@H](C)C(=O)N[C@@H]1CCCC[C@@H]1O` [MMI-059] were 66.3 µM and 41.4 µM. As for `CSCC[C@H](NC(=O)[C@@H](NC(=O)OC(C)(C)C)C(C)C)C(=O)N[C@@H](CC(C)C)[C@@H](O)CN(C)C(=O)[C@H](NC(=O)OCc1ccccc1)C(C)C` [MMI-061], under setting [1], the Ki is 9660 µM. Regarding `CC(C)C[C@H](NC(=O)[C@@H](NC(=O)OC(C)(C)C)C(C)C)[C@@H](O)CN(C)C(=O)[C@H](NC(=O)OCc1ccccc1)C(C)C` [MMI-062], the Ki app result under setting [3] is listed as “N.I”. Under setting [4], the Ki result is “N.I”. Consider `CSCC[C@H](NC(=O)[C@@H](NC(=O)OC(C)(C)C)C(C)C)C(=O)N[C@@H](CC(C)C)[C@@H](O)C[C@@H](C)C(=O)N[C@@H](CC(C)C)C(=O)NCCc1c[nH]c2ccccc12` [MMI-065], for which the Ki under setting [2] was 0.0687 µM and the Ki under setting [1] turned out to be 0.0429 µM. Taken in the same sequence, the figures for `CSCC[C@H](NC(=O)[C@@H](NC(=O)OC(C)(C)C)C(C)C)C(=O)N[C@@H](CC(C)C)[C@@H](O)C[C@@H](C)C(=O)N[C@@H](CC(C)C)C(=O)NC1Cc2ccccc2C1` [MMI-066] were 0.0212 µM and 0.0132 µM. In the case of `CC(C)C[C@H](NC(=O)[C@H](C)C[C@H](O)[C@H](CC(C)C)NC(=O)[C@H](CCS(C)(=O)=O)NC(=O)[C@@H](NC(=O)OC(C)(C)C)C(C)C)C(=O)NC1Cc2ccccc2C1` [MMI-067], the Ki turned out to be 0.0735 µM under setting [2] and 0.0459 µM under setting [1]. The matching figures for `CSCC[C@H](NC(=O)[C@H](CC(C)C)NC(=O)OC(C)(C)C)C(=O)N[C@@H](CC(C)C)[C@@H](O)C[C@@H](C)C(=O)N[C@H](C(=O)NCc1ccccc1)C(C)C` [MMI-070]: 0.0049 µM and 0.00306 µM. Taken in the same sequence, the figures for `CC(C)C[C@H](NC(=O)OC(C)(C)C)C(=O)N[C@@H](CCS(C)(=O)=O)C(=O)N[C@@H](CC(C)C)[C@@H](O)C[C@@H](C)C(=O)N[C@H](C(=O)NCc1ccccc1)C(C)C` [MMI-071] were 0.0019 µM and 0.00118 µM.

Regarding `CSCC[C@H](NC(=O)[C@@H](NC(=O)OC(C)(C)C)C(C)C)C(=O)N[C@@H](CC(C)C)[C@@H](O)C[C@@H](C)C(=O)N[C@@H](C(=O)NCc1ccccc1)[C@@H](C)O` [MMI-072], the Vi/Vo worked out at 0.9.

In the case of `CSCCC(NC(=O)[C@@H](NC(=O)OC(C)(C)C)C(C)C)C(=O)N[C@@H](CC(C)C)[C@@H](O)C[C@@H](C)C(=O)N[C@H](C(=O)NCc1ccccc1)[C@H](C)O` (stereo partly drawn) [MMI-081], the Vi/Vo was found to be 0.87. Still for that read-out and setting: the figure for `CC(C)C[C@H](NC(=O)C(CCS(C)(=O)=O)NC(=O)[C@@H](NC(=O)OC(C)(C)C)C(C)C)[C@@H](O)C[C@@H](C)C(=O)N[C@H](C(=O)NCc1ccccc1)[C@H](C)O` (stereo partly drawn) [MMI-082] is 0.72. Consider `CSCC[C@H](NC(=O)[C@@H](NC(=O)OC(C)(C)C)C(C)C)C(=O)N[C@@H](CC(C)C)[C@@H](O)C[C@@H](C)C(=O)N[C@H](C(=O)NCc1cccnc1)C(C)C` [MMI-087], for which the Ki reads like this: under setting [2], 0.905 µM; under setting [1], 0.565 µM. `CC(C)C[C@H](NC(=O)[C@H](CCS(C)(=O)=O)NC(=O)[C@@H](NC(=O)OC(C)(C)C)C(C)C)[C@@H](O)C[C@@H](C)C(=O)N[C@H](C(=O)NCc1cccnc1)C(C)C` [MMI-088]: the Ki reads like this: under setting [2], 1.03 µM; under setting [1], 0.646 µM.

For the compound `CSCC[C@H](NC(=O)[C@H](CC(C)C)NS(=O)(=O)c1ccc(C)cc1)C(=O)N[C@@H](CC(C)C)[C@@H](O)C[C@@H](C)C(=O)N[C@H](C(=O)NCc1ccccc1)C(C)C` [MMI-089], the Ki is 0.315 µM under setting [2] and 0.197 µM under setting [1]. The matching figures for `Cc1ccc(S(=O)(=O)N[C@@H](CC(C)C)C(=O)N[C@@H](CCS(C)(=O)=O)C(=O)N[C@@H](CC(C)C)[C@@H](O)C[C@@H](C)C(=O)N[C@H](C(=O)NCc2ccccc2)C(C)C)cc1` [MMI-090]: 0.311 µM and 0.194 µM.

Regarding `CSCC[C@H](NC(=O)[C@H](CC(C)C)NS(C)(=O)=O)C(=O)N[C@@H](CC(C)C)[C@@H](O)C[C@@H](C)C(=O)N[C@H](C(=O)NCc1ccccc1)C(C)C` [MMI-093], the Ki reads like this: under setting [2], 0.0119 µM; under setting [1], 0.00745 µM.

As to `CSCC[C@H](NC(=O)[C@H](CC(C)C)NC(C)=O)C(=O)N[C@@H](CC(C)C)[C@@H](O)C[C@@H](C)C(=O)N[C@H](C(=O)NCc1ccccc1)C(C)C` [MMI-094], the Ki is, setting by setting: under setting [2], 0.0641 µM; under setting [1], 0.0401 µM.

As for `CSCCC(NC(=O)[C@H](CC(C)C)NC(=O)OC(C)(C)C)C(=O)N[C@@H](CC(C)C)[C@@H](O)C[C@@H](C)C(=O)N[C@@H](CC(C)C)C(=O)NCc1ccccc1` (stereo partly drawn) [MMI-097], the Ki runs as follows: under setting [2], 0.0828 µM; under setting [1], 0.0517 µM. `CC[C@H](C)[C@H](NC(=O)[C@H](C)C[C@H](O)[C@H](CC(C)C)NC(=O)C(CCSC)NC(=O)[C@H](CC(C)C)NC(=O)OC(C)(C)C)C(=O)NCc1ccccc1` (stereo partly drawn) [MMI-099]: the Ki runs as follows: under setting [2], 0.29 µM; under setting [1], 0.182 µM.

Source of the values: patent US20040121947A1, “Compounds which inhibit beta-secretase activity and methods of use thereof” (Oklahoma Medical Research Foundation, priority 2000, published 2004).
